# In PubChem BioAssay AID250 (DTP/NCI, 2004):
# “And” between values parts separate entries of the source, which are not always exact repeats. Identical values can stand only once. Toxic doses and inconclusive results are not listed.
# System: BDF1 mice, L1210 leukemia sc, survival T/C
# Experiment: NCI In Vivo Anticancer Drug Screen. Data for tumor model L1210 Leukemia (subcutaneous) in B6D2F1 (BDF1) mice
# Details: endpoint: median survival time, higher = longer survival
# Method: The antitumor activity of compounds was measured in mice bearing transplantable tumors. Survival or tumor size were measured and the results are expressed as the measurement made in the treated group (T) divided by the measurement made in the vehicle treated control group (C). The tumor model used in this assay is L1210 Leukemia (subcutaneous) in B6D2F1 (BDF1) mice
# [1] = dose: 65.0 mg/kg/injection, schedule: Q01DX Z (sc), vehicle: methylcellulose (MC)
# [2] = dose: 108.0 mg/kg/injection, schedule: Q01DX Z (sc), vehicle: methylcellulose (MC)
# [3] = dose: 180.0 mg/kg/injection, schedule: Q01DX Z (sc), vehicle: methylcellulose (MC)
# [4] = dose: 300.0 mg/kg/injection, schedule: Q01DX Z (sc), vehicle: methylcellulose (MC)
# [5] = dose: 500.0 mg/kg/injection, schedule: Q01DX Z (sc), vehicle: methylcellulose (MC)
# [6] = dose: 1.08 mg/kg/injection, schedule: Q01DX Z (sc), vehicle: saline
# [7] = dose: 23.0 mg/kg/injection, schedule: Q## X Z (sc), vehicle: saline
# [8] = dose: 39.0 mg/kg/injection, schedule: Q01DX001 (sc), vehicle: saline
# [9] = dose: 65.0 mg/kg/injection, schedule: Q01DX001 (sc), vehicle: saline
# [10] = dose: 65.0 mg/kg/injection, schedule: Q## X Z (sc), vehicle: saline
# [11] = dose: 8.4 mg/kg/injection, schedule: Q01DX Z (sc), vehicle: saline
# [12] = dose: 39.0 mg/kg/injection, schedule: Q01DX Z (sc), vehicle: saline
# [13] = dose: 65.0 mg/kg/injection, schedule: Q01DX Z (sc), vehicle: saline
# [14] = dose: 108.0 mg/kg/injection, schedule: Q01DX Z (sc), vehicle: saline
compound,measurement,setting,value
CC(=O)OCC(=O)[C@@]1(O)CC[C@H]2[C@@H]3CCC4=CC(=O)CC[C@]4(C)[C@@]3(F)[C@@H](O)C[C@@]21C,T/C,"dose: 39.0 mg/kg/injection, schedule: Q01DX Z (sc), vehicle: methylcellulose (MC)",100 % of control
same,T/C,[1],100 % of control
same,T/C,[2],100 % of control
same,T/C,[3],104 % of control
same,T/C,[4],100 % of control
same,T/C,[5],100 % of control
CCCCCCOP(=O)(N1CC1)N1CC1,T/C,"dose: 0.65 mg/kg/injection, schedule: Q01DX Z (sc), vehicle: saline",100 % of control and 110 % of control
same,T/C,[6],104 % of control and 110 % of control (2×)
same,T/C,"dose: 23.0 mg/kg/injection, schedule: Q01DX001 (sc), vehicle: saline",150 % of control
same,T/C,[7],170 % of control
same,T/C,[8],150 % of control
same,T/C,"dose: 39.0 mg/kg/injection, schedule: Q## X Z (sc), vehicle: saline",220 % of control
same,T/C,[9],170 % of control
same,T/C,[10],160 % of control
same,T/C,"dose: 108.0 mg/kg/injection, schedule: Q01DX001 (sc), vehicle: saline",160 % of control
same,T/C,"dose: 108.0 mg/kg/injection, schedule: Q## X Z (sc), vehicle: saline",150 % of control
same,T/C,"dose: 180.0 mg/kg/injection, schedule: Q01DX001 (sc), vehicle: saline",150 % of control
CC(=O)NC1=C(N2CC2)C(=O)C(NC(C)=O)=C(N2CC2)C1=O,T/C,[6],213 % of control
same,T/C,"dose: 1.8 mg/kg/injection, schedule: Q01DX Z (sc), vehicle: saline",163 % of control
same,T/C,"dose: 5.0 mg/kg/injection, schedule: Q01DX Z (sc), vehicle: saline",118 % of control
same,T/C,[11],109 % of control
O=NN(CCF)C(=O)NC1CCCCC1,T/C,"dose: 8.4 mg/kg/injection, schedule: Q01DX Z (sc), vehicle: carboxymethylcellulose (CMC)",289 % of control
same,T/C,"dose: 14.0 mg/kg/injection, schedule: Q01DX Z (sc), vehicle: carboxymethylcellulose (CMC)",347 % of control
same,T/C,"dose: 23.0 mg/kg/injection, schedule: Q01DX Z (oral), vehicle: carboxymethylcellulose (CMC)",321 % of control
same,T/C,"dose: 23.0 mg/kg/injection, schedule: Q01DX Z (sc), vehicle: carboxymethylcellulose (CMC)",305 % of control
same,T/C,"dose: 39.0 mg/kg/injection, schedule: Q01DX Z (oral), vehicle: carboxymethylcellulose (CMC)",242 % of control
same,T/C,"dose: 65.0 mg/kg/injection, schedule: Q01DX Z (oral), vehicle: carboxymethylcellulose (CMC)",163 % of control
same,T/C,"dose: 108.0 mg/kg/injection, schedule: Q01DX Z (oral), vehicle: carboxymethylcellulose (CMC)",121 % of control
CN(N=O)C(=O)N[C@@H](C=O)[C@@H](O)[C@H](O)[C@H](O)CO,T/C,"dose: 25.0 mg/kg/injection, schedule: Q01DX009 (sc), vehicle: other",123 % of control
O=C1NC(O)CCN1C1OC(CO)C(O)C1O (configuration not stated),T/C,"dose: 125.0 mg/kg/injection, schedule: Q06HX018 (sc), vehicle: saline",102 % of control
same,T/C,"dose: 125.0 mg/kg/injection, schedule: Q## X018 (sc), vehicle: saline",102 % of control
same,T/C,"dose: 250.0 mg/kg/injection, schedule: Q06HX018 (sc), vehicle: saline",102 % of control
same,T/C,"dose: 250.0 mg/kg/injection, schedule: Q## X018 (sc), vehicle: saline",102 % of control
same,T/C,"dose: 500.0 mg/kg/injection, schedule: Q06HX018 (sc), vehicle: saline",108 % of control
same,T/C,"dose: 500.0 mg/kg/injection, schedule: Q## X018 (sc), vehicle: saline",108 % of control
same,T/C,"dose: 1000.0 mg/kg/injection, schedule: Q06HX018 (sc), vehicle: saline",107 % of control
same,T/C,"dose: 1000.0 mg/kg/injection, schedule: Q## X018 (sc), vehicle: saline",107 % of control
S=P(N1CCOCC1)(N1CC1)N1CC1,T/C,"dose: 14.0 mg/kg/injection, schedule: Q01DX Z (sc), vehicle: saline",96 % of control and 110 % of control (2×)
same,T/C,[7],120 % of control
same,T/C,[8],120 % of control
same,T/C,[12],150 % of control and 180 % of control
same,T/C,[9],150 % of control
same,T/C,[13],150 % of control
same,T/C,[10],170 % of control
same,T/C,[14],104 % of control and 120 % of control
same,T/C,"dose: 180.0 mg/kg/injection, schedule: Q01DX Z (sc), vehicle: saline",104 % of control and 120 % of control
same,T/C,"dose: 500.0 mg/kg/injection, schedule: Q01DX001 (sc), vehicle: saline",115 % of control
CC(=O)OCC1OC(n2ccc(N)nc2=O)C(OC(C)=O)C1OC(C)=O (configuration not stated),T/C,"dose: 20.0 mg/kg/injection, schedule: Q01DX Z (oral), vehicle: carboxymethylcellulose (CMC)",220 % of control
same,T/C,"dose: 20.0 mg/kg/injection, schedule: Q01DX Z (sc), vehicle: carboxymethylcellulose (CMC)",290 % of control
same,T/C,"dose: 40.0 mg/kg/injection, schedule: Q01DX Z (oral), vehicle: carboxymethylcellulose (CMC)",255 % of control
same,T/C,"dose: 40.0 mg/kg/injection, schedule: Q01DX Z (sc), vehicle: carboxymethylcellulose (CMC)",360 % of control
same,T/C,"dose: 80.0 mg/kg/injection, schedule: Q01DX Z (oral), vehicle: carboxymethylcellulose (CMC)",270 % of control
same,T/C,"dose: 80.0 mg/kg/injection, schedule: Q01DX Z (sc), vehicle: carboxymethylcellulose (CMC)",360 % of control
same,T/C,"dose: 160.0 mg/kg/injection, schedule: Q01DX Z (oral), vehicle: carboxymethylcellulose (CMC)",260 % of control
same,T/C,"dose: 160.0 mg/kg/injection, schedule: Q01DX Z (sc), vehicle: carboxymethylcellulose (CMC)",225 % of control
same,T/C,"dose: 320.0 mg/kg/injection, schedule: Q01DX Z (oral), vehicle: carboxymethylcellulose (CMC)",320 % of control
CCOC(=O)C(N)Cc1ccc(N(CCCl)CCCl)cc1 (configuration not stated),T/C,"dose: 23.0 mg/kg/injection, schedule: Q01DX Z (sc), vehicle: saline",110 % of control and 119 % of control
same,T/C,[12],104 % of control and 110 % of control
same,T/C,[13],100 % of control and 104 % of control
same,T/C,[14],90 % of control
C[C@]12CCC(=O)C=C1CC[C@@H]1[C@@H]2[C@@H](O)C[C@@]2(C)[C@H]1CC[C@]2(O)C(=O)CO,T/C,[1],100 % of control
same,T/C,[2],100 % of control
same,T/C,[3],100 % of control
same,T/C,[4],100 % of control
same,T/C,[5],100 % of control
CS(=O)(=O)OCCCNCCCOS(C)(=O)=O,T/C,"dose: 15.0 mg/kg/injection, schedule: Q01DX009 (sc), vehicle: saline",111 % of control
same,T/C,"dose: 30.0 mg/kg/injection, schedule: Q01DX009 (sc), vehicle: saline",108 % of control
same,T/C,"dose: 39.0 mg/kg/injection, schedule: Q04DX003 (ip), vehicle: saline",118 % of control
same,T/C,"dose: 180.0 mg/kg/injection, schedule: Q04DX003 (ip), vehicle: saline",93 % of control
COCCCN=C(N)c1ccc(NC(=O)c2ccc(C(=O)Nc3ccc(C(N)=NCCCOC)cc3)cc2)cc1,T/C,[11],158 % of control
same,T/C,[12],100 % of control
Cc1c2ccncc2c(C)c2c1[nH]c1ccccc12,T/C,"dose: 5.0 mg/kg/injection, schedule: Q03HX008 (ip), vehicle: steriod suspending solution",111 % of control
same,T/C,"dose: 5.0 mg/kg/injection, schedule: Q03HX008 (sc), vehicle: steriod suspending solution",100 % of control
same,T/C,"dose: 10.0 mg/kg/injection, schedule: Q03HX008 (ip), vehicle: steriod suspending solution",111 % of control
same,T/C,"dose: 10.0 mg/kg/injection, schedule: Q03HX008 (sc), vehicle: steriod suspending solution",111 % of control
same,T/C,"dose: 20.0 mg/kg/injection, schedule: Q03HX008 (sc), vehicle: steriod suspending solution",111 % of control
same,T/C,"dose: 40.0 mg/kg/injection, schedule: Q03HX008 (ip), vehicle: steriod suspending solution",150 % of control
